What was measured:
[1] = system: erythema produced by an ultra-violet light source on guinea pig skin; assay: UV-light-induced erythema blocking on guinea pig skin (anti-inflammatory activity); assay type: in vivo, albino guinea pigs; conditions: Cavia porcellus; oral, suspension in 1 percent aqueous sodium carboxymethylcellulose; groups of 4 guinea pigs; obtained directly or by extrapolation; read-out: ED50 for erythema blocking (dose producing 50 percent inhibition of the erythemic response)
Protocol: The compounds of this invention are anti-inflammatory and anti-thrombotic agents. […] Int. Pharmacodyn, 116, 261 (1958). In this procedure, albino guinea pigs weighing 225-300 gms. are shaved on the back and chemically depilated 18 to 20 hours before initiation of the test procedures. Animals in groups of 4 are given predetermined dosages of the drug under test with one group being maintained as a control group. The drug is administered by the oral route as a suspension in 1 percent aqueous sodium carboxymethylcellulose. The control animals receive only the suspending medium. After having being given the drug or suspension medium only, each group of animals is exposed to a high-intensity ultra-violet light for a predetermined period of time, the ultra-violet light being placed in contact with the depilated skin area on the animals' back. A gummed paper reinforcement is affixed to the lamp lens to provide an unexposed area of contrast for grading the light-produced erythema.
Beginning one hour after exposure and thereafter an half-hour intervals for another 1.5 hours, a trained observer grades erythema using an arbitrary scoring system based upon the degree of contrast and redness formed. […] The following scoring system is used:
Total scores from each treatment group of four guinea pigs are compared to the control treatment, and the percent inhibition calculated as follows: [formula] […]

[2] = system: collagen-induced platelet aggregation; assay: collagen-induced platelet aggregation (P.A.) inhibition after oral dosing; assay type: in vivo, guinea pigs; conditions: 2 doses at time zero and 2 hours later, blood removed 60 minutes after last dose, 0.05 ml. of 1:45 collagen dilution
Protocol: Certain of the compounds of this invention are also platelet aggregation inhibitors and the results of testing for this activity are also included in Table I. The platelet aggregation test used involves the effect of a drug upon collagen-induced platelet aggregation using the method of Hermann et al., Proc. Soc. Exp. Biol. Med. 136, 548 (1972). According to this procedure, 300-400 g. guinea pigs are used and the compound is administered by the oral route in 2 doses, at time zero and again 2 hours later, at a series of graded dose levels to groups of 4 pigs each. One group is maintained as a control group. Blood is removed by heart puncture 60 minutes after the last dose, and a platelet-rich plasma prepared therefrom. A stock collagen solution is prepared by solubilizing bovine Achilles tendon with acetic acid. The stock solution contains 0.25 percent collagen, has a pH of 2.8 and is kept under refrigeration. […] (Activity was determined by computor printout with significance at the 95 percent confidence level being attained at about the 50 percent inhibition level). In Table 1, column 1 gives the name of the compound, column 2, the ED50 for erythema blocking calculated as set forth above and column 3, the lowest active dose in the platelet aggregation test.

SMILES	ED50 [1] [mg/kg]	P.A., lowest active dose in the platelet aggregation test (active = about 50% inhibition of collagen-induced aggregation) [2] [mg/kg × 2]
Nc1cccc2c1NC(=O)C2c1ccccc1 (stereo not shown) [2-oxo-3-phenyl-7-aminoindoline]	10.2	100
CC(=O)Nc1cccc2c1NC(=O)C2c1ccccc1 (stereo not shown) [N-(2-oxo-3-phenyl-7-indolinyl)-acetamide, N-(2-oxo-3-phenyl-7-indolinyl)acetamide]	20	3.12

From patent US4110465A, “7-Amino and 7-alkanoylamino 2-oxo-3-phenylindolines” (Eli Lilly and Company, priority 1977, dated 1978)
